How the values were obtained:
K-562 = experiment: NCI-60 SRB screen: leukemia K-562; format: cell-based, human; conditions: K-562
RPMI-8226 = experiment: NCI-60 SRB screen: leukemia RPMI-8226; format: cell-based; conditions: Homo sapiens, 48 h, RPMI-8226
HOP-62 = experiment: NCI-60 SRB screen: non-small cell lung cancer HOP-62; format: cell-based, human; conditions: HOP-62
NCI-H226 = experiment: NCI-60 SRB screen: non-small cell lung cancer NCI-H226; format: cell-based, human; conditions: NCI-H226
NCI-H522 = experiment: NCI-60 SRB screen: non-small cell lung cancer NCI-H522; format: cell-based, human; conditions: NCI-H522
COLO 205 = experiment: NCI-60 SRB screen: colon cancer COLO 205; format: cell-based, human; conditions: COLO 205
HCC-2998 = experiment: NCI-60 SRB screen: colon cancer HCC-2998; format: cell-based, human; conditions: HCC-2998
HCT-116 = experiment: NCI-60 SRB screen: colon cancer HCT-116; format: cell-based; conditions: Homo sapiens, 48 h, HCT-116
HCT-15 = experiment: NCI-60 SRB screen: colon cancer HCT-15; format: cell-based, human; conditions: HCT-15
HT29 = experiment: NCI-60 SRB screen: colon cancer HT29; format: cell-based; conditions: Homo sapiens, HT29
KM12 = experiment: NCI-60 SRB screen: colon cancer KM12; format: cell-based, human; conditions: KM12
SW-620 = experiment: NCI-60 SRB screen: colon cancer SW-620; format: cell-based; conditions: Homo sapiens, 48 h, SW-620
SF-268 = experiment: NCI-60 SRB screen: CNS cancer SF-268; format: cell-based, human; conditions: SF-268
SF-539 = experiment: NCI-60 SRB screen: CNS cancer SF-539; format: cell-based, human; conditions: SF-539
LOX IMVI = experiment: NCI-60 SRB screen: melanoma LOX IMVI; format: cell-based, human
MALME-3M = experiment: NCI-60 SRB screen: melanoma MALME-3M; format: cell-based, human; conditions: MALME-3M
MDA-MB-435 = experiment: NCI-60 SRB screen: melanoma MDA-MB-435; format: cell-based, human; conditions: MDA-MB-435
SK-MEL-2 = experiment: NCI-60 SRB screen: melanoma SK-MEL-2; format: cell-based, human; conditions: SK-MEL-2
OVCAR-8 = experiment: NCI-60 SRB screen: ovarian cancer OVCAR-8; format: cell-based, human; conditions: OVCAR-8
SK-OV-3 = experiment: NCI-60 SRB screen: ovarian cancer SK-OV-3; format: cell-based, human; conditions: SK-OV-3
786-0 = experiment: NCI-60 SRB screen: renal cancer 786-0; format: cell-based, human; conditions: 786-0
A498 = experiment: NCI-60 SRB screen: renal cancer A498; format: cell-based, human; conditions: A498
ACHN = experiment: NCI-60 SRB screen: renal cancer ACHN; format: cell-based, human
CAKI-1 = experiment: NCI-60 SRB screen: renal cancer CAKI-1; format: cell-based, human; conditions: CAKI-1
RXF 393 = experiment: NCI-60 SRB screen: renal cancer RXF 393; format: cell-based, human; conditions: RXF 393
SN12C = experiment: NCI-60 SRB screen: renal cancer SN12C; format: cell-based, human
TK-10 = experiment: NCI-60 SRB screen: renal cancer TK-10; format: cell-based, human; conditions: TK-10
UO-31 = experiment: NCI-60 SRB screen: renal cancer UO-31; format: cell-based, human; conditions: UO-31
PC-3 = experiment: NCI-60 SRB screen: prostate cancer PC-3; format: cell-based, human; conditions: PC-3
DU-145 = experiment: NCI-60 SRB screen: prostate cancer DU-145; format: cell-based, human; conditions: DU-145
MDA-MB-231/ATCC = experiment: NCI-60 SRB screen: breast cancer MDA-MB-231/ATCC; format: cell-based; conditions: Homo sapiens, 48 h
BT-549 = experiment: NCI-60 SRB screen: breast cancer BT-549; format: cell-based, human; conditions: BT-549
T-47D = experiment: NCI-60 SRB screen: breast cancer T-47D; format: cell-based, human; conditions: T-47D
[1] = system: 60 human tumor cell lines; conditions: single dose 10 µM
Breast cancer subpanel = experiment: NCI-60 screen, subpanel Breast cancer
Prostate cancer subpanel = experiment: NCI-60 screen, subpanel Prostate cancer
[2] = single dose 10 µM, read-out: Percentage Cell Growth
[3] = five concentrations, SRB, read-out: GI50
[4] = Homo sapiens, five concentrations, 48 h, SRB, read-out: GI50

C=C(C)[C@@H]1CC[C@]2(C(=O)NCCNCCNCCN)CC[C@]3(C)[C@H](CC[C@@H]4[C@@]5(C)CC[C@H](O)C(C)(C)[C@@H]5CC[C@]43C)[C@@H]12 [Compound 6]
GI50 (K-562; Homo sapiens, K562, five concentrations, 48 h, SRB, read-out: GI50): 6.9 µM
Percentage Cell Growth (K-562; single dose 10 µM): −15.78%
activity at 10 µM (RPMI-8226; [2]): -8.15%
GI50 (RPMI-8226; [3]): 2.81 µM
Percentage Cell Growth (HOP-62; single dose 10 µM): −69.12%
GI50 (HOP-62; [4]): 16.5 µM
GI50 (NCI-H226; [4]): 15.5 µM
Percentage Cell Growth (NCI-H226; single dose 10 µM): −23.56%
GI50 (NCI-H522; [4]): 10.3 µM
Percentage Cell Growth (NCI-H522; single dose 10 µM): −57.83%
Percentage Cell Growth (COLO 205; single dose 10 µM): −19.47%
GI50 (COLO 205; [4]): 15.9 µM
Percentage Cell Growth (HCC-2998; single dose 10 µM): −90.36%
GI50 (HCC-2998; [4]): 14.1 µM
activity at 10 µM (HCT-116; [2]): -26.5%
GI50 (HCT-116; [3]): 4.4 µM
Percentage Cell Growth (HCT-15; single dose 10 µM): −24.81%
GI50 (HCT-15; [4]): 11.5 µM
activity at 10 µM (HT29; HT-29, 48 h, single dose 10 µM, read-out: Percentage Cell Growth): -39.6%
GI50 (HT29; HT-29, five concentrations, 48 h, SRB, read-out: GI50): 14.6 µM
GI50 (KM12; [4]): 6.81 µM
Percentage Cell Growth (KM12; single dose 10 µM): −52.23%
activity at 10 µM (SW-620; [2]): -86.7%
GI50 (SW-620; [3]): 14.7 µM
GI50 (SF-268; [4]): 13.5 µM
Percentage Cell Growth (SF-268; single dose 10 µM): −30.99%
GI50 (SF-539; [4]): 11.1 µM
Percentage Cell Growth (SF-539; single dose 10 µM): −100.00%
GI50 (LOX IMVI; [4]): 14.9 µM
Percentage Cell Growth (LOX IMVI; single dose 10 µM): −41.03%
GI50 (MALME-3M; [4]): 14.6 µM
Percentage Cell Growth (MALME-3M; single dose 10 µM): −100.00%
GI50 (MDA-MB-435; [4]): 13.4 µM
Percentage Cell Growth (MDA-MB-435; single dose 10 µM): −89.21%
GI50 (SK-MEL-2; [4]): 16.8 µM
Percentage Cell Growth (SK-MEL-2; single dose 10 µM): −65.39%
GI50 (OVCAR-8; [4]): 18.8 µM
Percentage Cell Growth (OVCAR-8; single dose 10 µM): −12.90%
GI50 (SK-OV-3; [4]): 17.5 µM
Percentage Cell Growth (SK-OV-3; single dose 10 µM): −14.17%
Percentage Cell Growth (786-0; single dose 10 µM): −83.51%
GI50 (786-0; [4]): 12.4 µM
Percentage Cell Growth (A498; single dose 10 µM): −32.64%
GI50 (A498; [4]): 19.6 µM
GI50 (ACHN; [4]): 12 µM
Percentage Cell Growth (ACHN; single dose 10 µM): −100.00%
Percentage Cell Growth (CAKI-1; single dose 10 µM): −93.59%
GI50 (CAKI-1; [4]): 5.92 µM
GI50 (RXF 393; [4]): 13.2 µM
Percentage Cell Growth (RXF 393; single dose 10 µM): −82.88%
GI50 (SN12C; [4]): 13.5 µM
Percentage Cell Growth (SN12C; single dose 10 µM): −53.68%
GI50 (TK-10; [4]): 15.8 µM
Percentage Cell Growth (TK-10; single dose 10 µM): −67.30%
GI50 (UO-31; [4]): 11.7 µM
Percentage Cell Growth (UO-31; single dose 10 µM): −100.00%
GI50 (PC-3; [4]): 2.95 µM
Percentage Cell Growth (PC-3; single dose 10 µM): 1.07%
Percentage Cell Growth (DU-145; single dose 10 µM): −8.34%
GI50 (DU-145; [4]): 14.1 µM
activity at 10 µM (MDA-MB-231/ATCC; MDA-MB-231/ATCC, single dose 10 µM, read-out: Percentage Cell Growth): -56.9%
GI50 (MDA-MB-231/ATCC; MDA-MB-231, MDA-MB-31/ATCC, five concentrations, SRB, read-out: GI50): 15.1 µM
Percentage Cell Growth (BT-549; single dose 10 µM): −51.94%
GI50 (BT-549; [4]): 15 µM
GI50 (T-47D; Homo sapiens, T47D, five concentrations, 48 h, SRB, read-out: GI50): 10.9 µM
Percentage Cell Growth (T-47D; single dose 10 µM): −32.56%
cancer cell lethality, range of percentage growth ([1]; cell lines with negative growth): −4.72% to −100%
cases of cancer cell lethality ([1]; number of cell lines): 57
MID b, average sensitivity of all cell line of particular subpanel (Breast cancer subpanel): 13.86 µM
Selectivity, ratio MID a: MID b (Breast cancer subpanel): 0.88
MID b, average sensitivity of all cell line of particular subpanel (Prostate cancer subpanel): 8.53 µM
Selectivity, ratio MID a: MID b (Prostate cancer subpanel): 1.42

Source: paper PMC7587962, “Evaluation of Cytotoxicity and α-Glucosidase Inhibitory Activity of Amide and Polyamino-Derivatives of Lupane Triterpenoids” (Molecules, 2020)
